Assays:
Assay type in all cases: cell-based
Details in all cases: 24 hour incubation, vs vehicle treated cells
[1] = system: COX7A2 (cytochrome c oxidase subunit VIIa polypeptide 2); assay: DNA microarray of embryonic chicken liver cells incubated with selenomethionine: COX7A2 expression
Protocol: (§1) Embryonic chicken kidney and liver cells were obtained from Charles River Laboratories, Inc. Cells were cultured in 75 cc flasks. Each flask represented a treatment group as follows: Control, 1 nM selenomethionine. Treatments consisted of 24 hour incubations with selenomethionine. After that period, samples were processed for microarray analysis. Experiments were performed in triplicate. DNA microarray analyses were performed using a system provided by Agilent. Arrays included four arrays per chip (Agilent 4×44K chip). Total RNA was reverse transcribed (1000 ng) using T7 primers and labeled and transcribed using Cyanine-3 dye. Each array was hybridized with at least 1.65 μg of labeled cRNA at 65° C. for 18 hours. Arrays were scanned using an Agilent array scanner. The microarray platform can determine a minimum of a 1.5 fold change in gene expression. Fold changes between homozygous ZDF rats fed potosaccharide for 28 days vs homozygous ZDF rats fed an equivalent amount of vehicle (control) were examined. In addition, gene expression was measured in heterozygous ZDF (lean rats) fed with vehicle only and compared to gene expression in homozygous ZDF control rats. Fold changes were used to calculate a percent restoration by using the fold changes between homozygous ZDF rats fed potosaccharide and lean control rats.

[2] = system: COX19 (COX19 cytochrome c oxidase assembly homolog); assay: DNA microarray of embryonic chicken liver cells incubated with selenomethionine: COX19 expression
Protocol: as §1

[3] = system: COX8A (cytochrome c oxidase subunit VIIIA); assay: DNA microarray of embryonic chicken liver cells incubated with selenomethionine: COX8A expression
Protocol: as §1

[4] = system: MOCS2 (molybdenum cofactor synthesis 2); assay: DNA microarray of embryonic chicken liver cells incubated with selenomethionine: MOCS2 expression
Protocol: as §1

[5] = system: ATOX1 (ATX1 antioxidant protein 1 homolog); assay: DNA microarray of embryonic chicken liver cells incubated with selenomethionine: ATOX1 expression
Protocol: as §1

[6] = system: COX10 (COX10 homolog, cytochrome c oxidase assembly protein, heme A: farnesyltransferase); assay: DNA microarray of embryonic chicken liver cells incubated with selenomethionine: COX10 expression
Protocol: as §1

C[Se]CC[C@H](N)C(=O)O [selenomethione, L-selenomethionine]
Fold Change (1 nM Se vs Control), COX7A2 [1]: 2.2 fold
Fold Change (1 nM Se vs Control), COX19 [2]: 1.3 fold
Fold Change (1 nM Se vs Control), COX8A [3]: 1.5 fold
Fold Change (1 nM Se vs Control), MOCS2 [4]: 2.2 fold
Fold Change (1 nM Se vs Control), ATOX1 [5]: 1.4 fold
Fold Change (1 nM Se vs Control), COX10 [6]: 1.4 fold

— patent US20190076461A1, “MATERIALS AND METHODS FOR TREATING HYPOXIC CONDITIONS” (MitoGenetics, LLC, priority 2016, published 2019)
